Test [1] concerns cancer cell line SW620, in which mutated RON (Δ155) is expressed. As to the kind of experiment: Cell-killing efficacy in RON-mutated cancer cell line SW620 (trypan blue). Type of test: cell-based. To be noted: for cytotoxicity at 1 µM / cytotoxicity at 5 µM: Homo sapiens, SW-620, 48 hours, trypan blue, n=2, read-out: Cell death (%) Cancer cell line SW620; for cell-killing effect (in words): SW620, as compared with the positive control. As to the method: (§1) Experimental Example 4: Measurement of Cell-Killing Efficacy of Example Compounds in RON-Mutated Cancer Cell Lines
(§2) Each of two colorectal cancer cell lines, that is, the cancer cell line HT29 (30038, KCLB, RPMI+10% FBS), in which mutated RON (Δ160) is expressed, and the cancer cell line SW620 (CCL-227, ATCC, RPMI+10% FBS), in which mutated RON (Δ155) is expressed, was dispensed into each 60 mm^2 dish at 1×10^5 cells. After 24 hours, the dish was treated with each of the example compounds at a concentration of 1 μM or 5 μM while performing medium exchange, and then reaction was allowed to proceed for 48 hours. After 48 hours, centrifugation was performed for 4 minutes at 1,500 rpm to collect cells and cell fluid. Thereafter, living cells and dead cells were quantified (n=2) using a trypan blue solution (15250-061, Gibco), and statistical analysis was performed using Excel-T-test. Here, as a negative control, only a solvent (0.10% DMSO) was used; and as a positive control, N-(4-(2-amino-3-chloropyridin-4-yloxy)-3-fluorophenyl)-4-ethoxy-1-(4-fluorophenyl)-2-oxo-1,2-dihydropyridine-3-carboxamide, which is the compound of Example 1 in WO 2008/058229 A1, was used.

Test [2] has as its system cancer cell line KM12C, in which RON is activated. As to the kind of experiment: Cell-killing efficacy in RON-activated cancer cell line (trypan blue). The note with it: for cytotoxicity at 1 µM / cytotoxicity at 5 µM: Homo sapiens, 48 hours, trypan blue, n=2, read-out: Cell death (%) Cancer cell line KM12C; for cell-killing effect (in words): as compared with the positive control. Type of test: cell-based. The method, boiled down: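 KM12C cells seeded 1×10^5 per 60 mm^2 dish in MEM + 10% FBS, then exposed 24 h later to compound at 1 μM or 5 μM for 48 h.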

For another test, the target named is T1, RON tyrosine kinase (Homo sapiens, UniProt Q04912).
T1 construct: purchased Carna Bioscience
T1 sequence (Q04912 25-1400): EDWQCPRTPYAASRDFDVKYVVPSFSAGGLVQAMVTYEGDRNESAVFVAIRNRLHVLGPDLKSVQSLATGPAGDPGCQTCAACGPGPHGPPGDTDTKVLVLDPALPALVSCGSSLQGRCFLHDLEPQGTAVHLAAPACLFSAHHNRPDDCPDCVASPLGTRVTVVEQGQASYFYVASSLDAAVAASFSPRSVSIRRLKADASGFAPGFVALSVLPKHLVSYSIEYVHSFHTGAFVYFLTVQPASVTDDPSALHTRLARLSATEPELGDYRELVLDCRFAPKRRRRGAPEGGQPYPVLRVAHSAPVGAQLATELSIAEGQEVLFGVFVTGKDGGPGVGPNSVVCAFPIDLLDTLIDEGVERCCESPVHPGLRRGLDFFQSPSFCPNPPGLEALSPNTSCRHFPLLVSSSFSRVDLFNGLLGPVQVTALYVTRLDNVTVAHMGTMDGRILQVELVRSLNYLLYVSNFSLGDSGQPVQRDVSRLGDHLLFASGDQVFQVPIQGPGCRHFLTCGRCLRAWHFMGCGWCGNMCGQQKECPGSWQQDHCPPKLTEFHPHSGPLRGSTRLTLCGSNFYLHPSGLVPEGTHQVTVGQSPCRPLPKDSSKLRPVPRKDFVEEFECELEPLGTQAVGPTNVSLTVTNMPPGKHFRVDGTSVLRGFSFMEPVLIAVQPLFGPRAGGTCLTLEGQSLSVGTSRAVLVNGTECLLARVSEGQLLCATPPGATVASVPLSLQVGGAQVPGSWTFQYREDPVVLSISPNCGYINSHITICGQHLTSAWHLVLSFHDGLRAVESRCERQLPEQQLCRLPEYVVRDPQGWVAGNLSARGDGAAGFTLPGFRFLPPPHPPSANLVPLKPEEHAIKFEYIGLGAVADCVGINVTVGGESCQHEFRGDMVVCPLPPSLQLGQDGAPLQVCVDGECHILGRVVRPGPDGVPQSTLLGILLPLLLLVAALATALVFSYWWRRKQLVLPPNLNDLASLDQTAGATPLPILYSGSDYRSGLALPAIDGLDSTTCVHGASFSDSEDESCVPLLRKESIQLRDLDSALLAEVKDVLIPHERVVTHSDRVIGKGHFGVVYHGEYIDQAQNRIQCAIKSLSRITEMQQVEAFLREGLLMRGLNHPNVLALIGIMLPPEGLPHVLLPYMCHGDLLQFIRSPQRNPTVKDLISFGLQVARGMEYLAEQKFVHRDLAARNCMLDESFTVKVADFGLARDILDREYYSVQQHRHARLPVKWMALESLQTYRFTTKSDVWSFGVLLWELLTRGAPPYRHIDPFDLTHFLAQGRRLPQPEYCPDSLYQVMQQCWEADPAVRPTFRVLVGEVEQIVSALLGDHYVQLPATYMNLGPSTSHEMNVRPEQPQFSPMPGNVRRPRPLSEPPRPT
As to the kind of experiment: Enzyme inhibitory activity against RON tyrosine kinase (TR-FRET). The class given is biochemical. The note with it: RON (Carna Bioscience). The method, boiled down: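 Recombinant RON was preincubated with compound for 15 min at RT in 50 mM HEPES pH 7.5, 10 mM MgCl2, 1 mM EGTA, 2 mM DTT, 0.01% Tween-20. Enzyme (0.4 nM), ATP (60 μM) and tyrosine peptide (400 nM) were prepared at 2×, 4× and 4× final. After 60 min at RT, EDTA/Eu-anti-phosphotyrosine stop; IC50 from 665 nm TR-FRET emission.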
For orientation: Time-resolved FRET reads energy transfer from a long-lived donor to a nearby acceptor.

The test system of test [3] is cancer cell line KM12C, in which RON is activated. The test can be described thus: Cell growth inhibitory ability in RON-activated cancer cell line (MTS). The note with it: Homo sapiens, 48 hours, absorbance 490 nm. The class given is cell-based. The method, boiled down:
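KM12C cells (RON-activated, MEM with FBS) exposed to compound […] for 48 h. MTS added 24 h after treatment ended, incubated 4 h at 37° C, absorbance read at 490 nm. IC50 derived from absorbance.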

Test [4] has as its system cancer cell line HT29, in which mutated RON (Δ160) is expressed. The test can be described thus: Cell-killing efficacy in RON-mutated cancer cell line HT29 (trypan blue). The class given is cell-based. The note with it: for cytotoxicity at 1 µM / cytotoxicity at 5 µM: Homo sapiens, HT-29, 48 hours, trypan blue, n=2, read-out: Cell death (%) Cancer cell line HT29; for cell-killing effect (in words): HT29, as compared with the positive control. The method, then: as §1, §2

Molecules are shown by their SMILES. pIC50: −log10 of the molar value.

As a reminder, the pIC50 is the negative decadic logarithm of the IC50, by convention in mol/L. Low readings indicate a high IC50, high ones a low IC50.

`Cn1cnc(-c2cc3nccc(Oc4ccc(NC(=O)c5c6c(cn(-c7ccc(F)cc7)c5=O)CCO6)cc4F)c3s2)c1` [Example 8, N-(3-Fluoro-4-((2-(1-methyl-1H-imidazol-4-yl)thieno[3,2-b]pyridin-7-yl)oxy)phenyl)-5-(4-fluorophenyl)-6-oxo-2,3,5,6-tetrahydrofuro[3,2-c]pyridine-7-carboxamide]: the cytotoxicity at 1 µM in test [1] stood at 5.98%; in test [2] it was 32.4%; in test [4], 4.88%. The figures for the cytotoxicity at 5 µM in test [1], in test [2] and in test [4] were 7.83%, 46.9% and 16.8%, respectively. In addition, the values for the negative-log IC50 (pIC50) (against RON tyrosine kinase; in test [3]) were 9.18 and 9.52, respectively.
Take `COc1cc2nccc(Oc3ccc(NC(=O)c4c5c(cn(-c6ccc(F)cc6)c4=O)CCO5)cc3F)c2cc1NC(C)=O` [Example 52, N-(4-((6-Acetamido-7-methoxyquinolin-4-yl)oxy)-3-fluorophenyl)-5-(4-fluorophenyl)-6-oxo-2,3,5,6-tetrahydrofuro[3,2-c]pyridine-7-carboxamide]: the cytotoxicity at 1 µM was 13.6% in test [1], 10.1% in test [2] and 10.5% in test [4]. The cytotoxicity at 5 µM in test [1] came to 81.8%; in test [2], 24.7%; in test [4], 16.1%. The pIC50 on RON tyrosine kinase is 8.74; in test [3] it was 9.00.
For the compound `COc1cc2c(Oc3ccc(NC(=O)c4c5c(cn(-c6ccc(F)cc6)c4=O)CCO5)cc3F)ccnc2cc1OCCCN1CCOCC1` [Example 76, N-(3-Fluoro-4-((6-methoxy-7-(3-morpholinopropoxy)quinolin-4-yl)oxy)phenyl)-5-(4-fluorophenyl)-6-oxo-2,3,5,6-tetrahydrofuro[3,2-c]pyridine-7-carboxamide], the cytotoxicity at 1 µM in test [1] was determined as 46.4%; in test [2], 35.7%; in test [4], 21.9%. Besides, the results for the cytotoxicity at 5 µM in test [1], in test [2] and in test [4] were 67.8%, 38.3% and 28.6%, respectively. For the same compound, the “cell-killing effect (in words)” value in test [1], in test [2] and in test [4] was “high cell-killing effect” each time. Also, the negative-log IC50 (pIC50) at RON tyrosine kinase is 8.75; in test [3], 8.40.
For the compound `COc1cc2c(Oc3ccc(NC(=O)c4c5c(cn(-c6ccc(F)cc6)c4=O)CCO5)cc3F)ccnc2cc1OCCN1CCC(F)(F)CC1` [Example 145, N-(4-((7-(2-(4,4-Difluoropiperidin-1-yl)ethoxy)-6-methoxyquinolin-4-yl)oxy)-3-fluorophenyl)-5-(4-fluorophenyl)-6-oxo-2,3,5,6-tetrahydrofuro[3,2-c]pyridine-7-carboxamide], the cytotoxicity at 1 µM was found to be 11% in test [1], 25.7% in test [2] and 16.4% in test [4]. Also, the cytotoxicity at 5 µM in test [1] was 87.1%; in test [2] it was 45.4%; in test [4], 81.4%. In addition, the pIC50 in test [3] was 8.70.
With `O=C(Nc1ccc(Oc2ccnc3cc(OCCCN4CCOCC4)ccc23)c(F)c1)c1c2c(cn(-c3ccc(F)cc3)c1=O)CCO2` [Example 158, N-(3-Fluoro-4-((7-(3-morpholinopropoxy)quinolin-4-yl)oxy)phenyl)-5-(4-fluorophenyl)-6-oxo-2,3,5,6-tetrahydrofuro[3,2-c]pyridine-7-carboxamide], the cytotoxicity at 1 µM in test [1] came out at 11.6%; in test [2] it was 24.1%; in test [4] it was 15.2%. Besides, the cytotoxicity at 5 µM in test [1] was found to be 92.3%; in test [2] it was 37.1%; in test [4] it was 30.9%. For the same compound, the values for the negative-log IC50 (pIC50) (at RON tyrosine kinase; in test [3]) were 8.70 and 8.30, respectively.
As to `COc1cc2c(Oc3ccc(NC(=O)c4c5c(cn(-c6ccc(F)cc6)c4=O)CCO5)cc3F)ccnc2cc1N` [Example 181, N-(4-((7-Amino-6-methoxyquinolin-4-yl)oxy)-3-fluorophenyl)-5-(4-fluorophenyl)-6-oxo-2,3,5,6-tetrahydrofuro[3,2-c]pyridine-7-carboxamide], the cytotoxicity at 1 µM in test [1] worked out at 11.3%; in test [2] it was 14.6%; in test [4], 10.2%. In addition, the cytotoxicity at 5 µM in test [1] was found to be 35%; in test [2] it was 36.8%; in test [4], 99.1%. In addition, the pIC50 is 8.23 against RON tyrosine kinase and 8.70 in test [3].
Consider `COc1cc2c(Oc3ccc(NC(=O)c4c5c(cn(-c6ccc(F)cc6)c4=O)CCO5)cc3F)ccnc2cc1NC(C)=O` [Example 184, N-(4-((7-Acetamido-6-methoxyquinolin-4-yl)oxy)-3-fluorophenyl)-5-(4-fluorophenyl)-6-oxo-2,3,5,6-tetrahydrofuro[3,2-c]pyridine-7-carboxamide], for which the cytotoxicity at 1 µM in test [1] was found to be 5%; in test [2], 13.8%; in test [4], 7.9%. Besides, the figures for the cytotoxicity at 5 µM in test [1], in test [2] and in test [4] were 29.8%, 54.2% and 23.2%, respectively. Further, the pIC50 on RON tyrosine kinase was 9.04; in test [3] it was 8.70.
For the compound `COc1cc2nccc(Oc3ccc(NC(=O)c4c5c(cn(-c6ccc(F)cc6)c4=O)CCO5)cc3F)c2cc1NCCN1CCOCC1` [Example 185, N-(3-Fluoro-4-((7-methoxy-6-((2-morpholinoethyl)amino)quinolin-4-yl)oxy)phenyl)-5-(4-fluorophenyl)-6-oxo-2,3,5,6-tetrahydrofuro[3,2-c]pyridine-7-carboxamide], the cytotoxicity at 1 µM turned out to be 28.1% in test [1], 32.5% in test [2] and 5.1% in test [4]. Also, the values for the cytotoxicity at 5 µM in test [1], in test [2] and in test [4] were 70.2%, 63.8% and 32.4%, respectively. Also, the “cell-killing effect (in words)” value in test [1], in test [2] and in test [4] was “high cell-killing effect” each time. Besides, the pIC50 at RON tyrosine kinase is 8.33; in test [3] it was 9.00.
In the case of `COc1cc2c(Oc3ccc(NC(=O)c4c5c(cn(-c6ccc(F)cc6)c4=O)CCO5)cc3F)ccnc2cc1NCCN1CCOCC1` [Example 187, N-(3-Fluoro-4-((6-methoxy-7-((2-morpholinoethyl)amino)quinolin-4-yl)oxy)phenyl)-5-(4-fluorophenyl)-6-oxo-2,3,5,6-tetrahydrofuro[3,2-c]pyridine-7-carboxamide], the results for the cytotoxicity at 1 µM in test [1], in test [2] and in test [4] were 23.9%, 20.4% and 8.4%, respectively. Also, the figures for the cytotoxicity at 5 µM in test [1], in test [2] and in test [4] were 50.5%, 60% and 34.3%, respectively. Also, the “cell-killing effect (in words)” value in test [1], in test [2] and in test [4] was “high cell-killing effect” in each case. For the same compound, the pIC50 at RON tyrosine kinase was 8.41; in test [3] it was 8.22.
For the compound `CCOc1ccn(-c2ccc(F)cc2)c(=O)c1C(=O)Nc1ccc(Oc2ccnc(N)c2Cl)c(F)c1` [Positive control, N-(4-(2-amino-3-chloropyridin-4-yloxy)-3-fluorophenyl)-4-ethoxy-1-(4-fluorophenyl)-2-oxo-1,2-dihydropyridine-3-carboxamide, reference compound], the results for the cytotoxicity at 1 µM in test [1], in test [2] and in test [4] were 3.46%, 9.94% and 10.4%, respectively. The cytotoxicity at 5 µM in test [1] stood at 9.28%; in test [2], 12.8%; in test [4], 16.1%. The negative-log IC50 (pIC50) in test [3] was 6.88.

Values taken from patent US20220235064A1 (WELLMARKER BIO CO., LTD., priority 2019, published 2022).
